Source: ChEMBL document CHEMBL1806399, “Synthesis and SAR of new pyrazolo[4,3-h]quinazoline-3-carboxamide derivatives as potent and selective MPS1 kinase inhibitors” (Bioorg Med Chem Lett, 2011)
Values after ≈ are worked out from the molar mass of the structure shown.

What was measured:
[1] = target: T1, Dual specificity protein kinase TTK (Homo sapiens, UniProt P33981); assay: Inhibition of MPS1 assessed as [33P]-gamma-ATP incorporation into substrate P38-betatide by gamma counting
T1 sequence (P33981 whole entry): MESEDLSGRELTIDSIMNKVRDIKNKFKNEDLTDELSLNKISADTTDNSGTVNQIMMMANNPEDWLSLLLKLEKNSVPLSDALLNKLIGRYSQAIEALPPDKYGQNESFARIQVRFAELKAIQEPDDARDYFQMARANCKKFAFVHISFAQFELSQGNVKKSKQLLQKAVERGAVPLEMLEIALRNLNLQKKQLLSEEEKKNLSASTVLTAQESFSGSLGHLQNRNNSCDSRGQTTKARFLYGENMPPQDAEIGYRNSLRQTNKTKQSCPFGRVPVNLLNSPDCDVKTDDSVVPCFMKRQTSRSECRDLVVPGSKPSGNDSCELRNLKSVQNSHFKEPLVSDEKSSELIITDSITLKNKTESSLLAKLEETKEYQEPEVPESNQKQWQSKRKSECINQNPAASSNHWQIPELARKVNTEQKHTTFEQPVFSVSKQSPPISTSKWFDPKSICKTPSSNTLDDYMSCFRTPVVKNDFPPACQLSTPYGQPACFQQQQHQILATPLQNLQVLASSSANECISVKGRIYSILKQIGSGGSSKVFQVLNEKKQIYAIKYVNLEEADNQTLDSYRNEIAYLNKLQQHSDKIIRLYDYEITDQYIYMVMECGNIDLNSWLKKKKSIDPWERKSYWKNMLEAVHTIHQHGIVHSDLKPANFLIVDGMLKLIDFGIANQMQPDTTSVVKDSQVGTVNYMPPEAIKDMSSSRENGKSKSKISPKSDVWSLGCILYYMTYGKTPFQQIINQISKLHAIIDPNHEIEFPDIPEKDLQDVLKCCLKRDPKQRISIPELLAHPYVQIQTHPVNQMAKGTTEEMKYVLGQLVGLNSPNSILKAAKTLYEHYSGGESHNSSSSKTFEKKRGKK

[2] = Solubility of the compound at pH 7; format: physicochemical; settings: buffer
[3] = target: Cyclin-dependent kinase 2/cyclin A (Homo sapiens, UniProt P24941); assay: Inhibition of CDK2/Cyclin A assessed as [33P]-gamma-ATP incorporation into substrate by gamma counting; format: protein-complex assay
U2OS = assay: Inhibition of mitosis in human U2OS cells assessed as histone H3 phosphorylation at Ser 10 residue after 2 hrs by immunoassay; format: functional, cell-based
Aurora kinase A = target: T2, Aurora kinase A (Homo sapiens, UniProt O14965); assay: Inhibition of Aur-A assessed as [33P]-gamma-ATP incorporation into substrate by gamma counting
T2 sequence (O14965 whole entry): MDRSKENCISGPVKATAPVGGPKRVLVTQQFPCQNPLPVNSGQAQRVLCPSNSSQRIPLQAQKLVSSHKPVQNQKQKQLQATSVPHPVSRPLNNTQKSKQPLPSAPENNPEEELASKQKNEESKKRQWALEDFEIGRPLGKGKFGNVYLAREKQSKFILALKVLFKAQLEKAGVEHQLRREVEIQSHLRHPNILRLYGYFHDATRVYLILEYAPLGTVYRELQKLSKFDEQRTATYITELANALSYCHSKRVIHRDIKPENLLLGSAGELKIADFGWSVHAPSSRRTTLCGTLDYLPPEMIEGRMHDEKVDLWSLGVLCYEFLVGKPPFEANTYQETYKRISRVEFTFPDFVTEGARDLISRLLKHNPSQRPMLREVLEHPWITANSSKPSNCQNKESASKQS

A2780 = assay: Antiproliferative activity in human A2780 cells after 72 hrs by CellTiter-Glo assay; format: functional, cell-based; settings: A2780, 72 h
[4] = target: Serine/threonine-protein kinase PLK1 (Homo sapiens, UniProt P53350); assay: Inhibition of PLK1 assessed as [33P]-gamma-ATP incorporation into substrate by gamma counting
Chain of Serine/threonine-protein kinase PLK1 (P53350 whole entry): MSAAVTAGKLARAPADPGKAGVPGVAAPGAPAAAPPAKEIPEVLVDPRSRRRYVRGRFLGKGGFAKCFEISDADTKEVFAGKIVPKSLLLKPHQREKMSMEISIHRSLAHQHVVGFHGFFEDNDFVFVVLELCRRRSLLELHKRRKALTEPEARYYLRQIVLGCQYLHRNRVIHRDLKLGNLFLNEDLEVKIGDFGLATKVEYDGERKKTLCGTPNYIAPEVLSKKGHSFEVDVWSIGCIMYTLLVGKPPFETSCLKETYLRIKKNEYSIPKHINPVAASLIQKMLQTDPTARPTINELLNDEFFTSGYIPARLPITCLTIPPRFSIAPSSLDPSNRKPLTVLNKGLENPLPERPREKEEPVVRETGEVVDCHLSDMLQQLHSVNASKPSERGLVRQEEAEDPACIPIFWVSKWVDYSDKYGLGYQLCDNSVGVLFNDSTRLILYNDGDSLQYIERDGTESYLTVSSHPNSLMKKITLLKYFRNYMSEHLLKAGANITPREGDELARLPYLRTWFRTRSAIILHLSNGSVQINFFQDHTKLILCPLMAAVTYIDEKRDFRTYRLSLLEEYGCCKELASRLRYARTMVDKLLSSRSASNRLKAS

Mus musculus [5] = assay: Antitumor activity against human A2780 cells xenografted in mouse assessed as tumor growth inhibition at 90 mg/kg, po for seven consecutive days; format: functional; settings: read-out: GI
Mus musculus [6] = assay: Toxicity in mouse assessed as body weight loss at 90 mg/kg, po for seven consecutive days; format: organism-based; parameters: dose 90 mg/kg, route oral; settings: in vivo
[7] = Cmax in mouse at 10 mg/kg, po; format: ADME, organism-based; parameters: dose 10 mg/kg, route oral; settings: in vivo
[8] = Half life in mouse at 10 mg/kg, po; format: ADME, organism-based; parameters: dose 10 mg/kg, route oral; settings: in vivo
[9] = AUC in mouse at 10 mg/kg, iv; format: ADME, organism-based; parameters: dose 10 mg/kg, route intravenous; settings: plasma
[10] = Clearance in mouse at 10 mg/kg, iv; format: ADME, organism-based; parameters: dose 10 mg/kg, route intravenous; settings: in vivo
[11] = AUC in mouse at 10 mg/kg, po; format: ADME, organism-based; parameters: dose 10 mg/kg, route oral; settings: plasma
[12] = Volume of distribution at steady state in mouse at 10 mg/kg, iv; format: ADME, organism-based; parameters: dose 10 mg/kg, route intravenous; settings: in vivo, read-out: Vdss
[13] = Oral bioavailability in mouse at 10 mg/kg; format: ADME, organism-based; settings: in vivo
[14] = Half life in mouse at 10 mg/kg, iv; format: ADME, organism-based; parameters: dose 10 mg/kg, route intravenous; settings: in vivo

IC50 [1]	solubility [2]	IC50 [3]	IC50 (U2OS)	IC50 (Aurora kinase A)	IC50 (A2780)	IC50 [4]	Compound	further results
19 nM	116 µM (≈ 73.9 µg/mL)	> 10000 nM	2 nM	484 nM	83 nM	> 10000 nM	CCc1cccc(CC)c1NC(=O)c1nn(C)c2c1CCc1cnc(Nc3ccc(C(=O)N4CCC(N(C)C)CC4)cc3OC)nc1-2	–
66 nM	–	–	–	–	–	–	COc1ccccc1Nc1ncc2c(n1)-c1c(c(C(N)=O)nn1C)CC2	–
1220 nM	–	> 10000 nM	–	> 10000 nM	–	–	Cn1nc(C(N)=O)c2c1-c1nc(Nc3ccccc3OC(F)(F)F)ncc1CC2	–
21 nM	59 µM (≈ 36.7 µg/mL)	3620 nM	2 nM	372 nM	< 16 nM	> 10000 nM	CCc1cccc(CC)c1NC(=O)c1nn(C)c2c1CCc1cnc(Nc3ccc(C(=O)N4CCCN(C)CC4)cc3OC)nc1-2	–
103 nM	110 µM (≈ 72.9 µg/mL)	> 10000 nM	11 nM	1380 nM	83 nM	> 10000 nM	CCc1cccc(CC)c1NC(=O)c1nn(C)c2c1CCc1cnc(Nc3ccc(C(=O)N4CCC[C@@H]4CN4CCCC4)cc3OC)nc1-2	–
241 nM	–	–	–	–	–	–	Cc1ccccc1Nc1ncc2c(n1)-c1c(c(C(N)=O)nn1C)CC2	–
33 nM	44 µM (≈ 26.3 µg/mL)	> 10000 nM	12 nM	750 nM	101 nM	1650 nM	CCc1cccc(CC)c1NC(=O)c1nn(C)c2c1CCc1cnc(Nc3ccc(C(=O)NCCN(C)C)cc3OC)nc1-2	–
2170 nM	–	–	–	–	–	–	CNC(=O)c1nn(C)c2c1CCc1cnc(Nc3ccccc3)nc1-2	–
36 nM	< 1 µM	5570 nM	4 nM	768 nM	135 nM	3030 nM	CCc1cccc(CC)c1NC(=O)c1nn(C)c2c1CCc1cnc(Nc3ccc(C(N)=O)cc3OC)nc1-2	–
130 nM	27 µM (≈ 17.6 µg/mL)	> 10000 nM	110 nM	1380 nM	771 nM	> 10000 nM	CCc1cccc(CC)c1NC(=O)c1nn(C)c2c1CCc1cnc(Nc3ccc(C(=O)NCCN(C)C)cc3OC(F)(F)F)nc1-2	–
72 nM	96 µM (≈ 63.6 µg/mL)	> 10000 nM	13 nM	491 nM	73 nM	> 10000 nM	CCc1cccc(CC)c1NC(=O)c1nn(C)c2c1CCc1cnc(Nc3ccc(C(=O)N4CCC[C@H]4CN4CCCC4)cc3OC)nc1-2	–
823 nM	< 1 µM	> 10000 nM	–	> 10000 nM	2860 nM	> 10000 nM	CCc1cccc(CC)c1NC(=O)c1nn(C)c2c1CCc1cnc(Nc3ccccc3OC(F)(F)F)nc1-2	–
391 nM	65 µM (≈ 46.6 µg/mL)	> 10000 nM	210 nM	> 10000 nM	422 nM	> 10000 nM	CCc1cccc(CC)c1NC(=O)c1nn(C)c2c1CCc1cnc(Nc3ccc(C(=O)N4CCC[C@@H]4CN4CCCC4)cc3OC(F)(F)F)nc1-2	–
–	45 µM (≈ 30.5 µg/mL)	–	32 nM	–	1000 nM	> 10000 nM	CCc1cccc(CC)c1NC(=O)c1nn(C)c2c1CCc1cnc(Nc3ccc(C(=O)NC4CCN(C)CC4)cc3OC(F)(F)F)nc1-2	inhibition in vivo at 90 mg/kg (Mus musculus [5]): 53%; Activity (Mus musculus [6]): Non-toxic
202 nM	69 µM (≈ 49.5 µg/mL)	> 10000 nM	260 nM	> 10000 nM	407 nM	> 10000 nM	CCc1cccc(CC)c1NC(=O)c1nn(C)c2c1CCc1cnc(Nc3ccc(C(=O)N4CCC[C@H]4CN4CCCC4)cc3OC(F)(F)F)nc1-2	–
> 11000 nM	–	–	–	–	–	> 10000 nM	Cn1nc(C(=O)NCc2ccccc2)c2c1-c1nc(Nc3ccccc3)ncc1CC2	–
525 nM	< 1 µM	> 10000 nM	–	3170 nM	541 nM	> 10000 nM	CCc1cccc(CC)c1NC(=O)c1nn(C)c2c1CCc1cnc(Nc3ccccc3OC)nc1-2	–
146 nM	46 µM (≈ 31.1 µg/mL)	> 10000 nM	32 nM	> 10000 nM	244 nM	> 10000 nM	CCc1cccc(CC)c1NC(=O)c1nn(C)c2c1CCc1cnc(Nc3ccc(C(=O)N4CCCN(C)CC4)cc3OC(F)(F)F)nc1-2	Cmax [7]: 245 nM; half-life [8]: 2.92 h; AUC [9]: 2.9 µM·h; clearance [10]: 77.5 mL/min/kg; AUC [11]: 0.64 µM·h; Vd [12]: 8.41 L/kg; bioavailability [13]: 22.4%; half-life [14]: 1.61 h
> 12000 nM	–	697 nM	–	677 nM	–	> 10000 nM	Cn1nc(C(=O)NCCc2ccccc2)c2c1-c1nc(Nc3ccccc3)ncc1CC2	–
140 nM	1 µM (≈ 0.58 µg/mL)	> 10000 nM	160 nM	> 10000 nM	298 nM	> 10000 nM	CCc1cccc(CC)c1NC(=O)c1nn(C)c2c1CCc1cnc(Nc3ccc(C(N)=O)cc3OC(F)(F)F)nc1-2	–
84 nM	3 µM (≈ 1.87 µg/mL)	> 10000 nM	16 nM	1450 nM	150 nM	237 nM	CCc1cccc(CC)c1NC(=O)c1nn(C)c2c1CCc1cnc(Nc3ccc(C(=O)NC4CCN(C)CC4)cc3OC)nc1-2	–
206 nM	70 µM (≈ 48.4 µg/mL)	> 10000 nM	40 nM	> 10000 nM	485 nM	> 10000 nM	CCc1cccc(CC)c1NC(=O)c1nn(C)c2c1CCc1cnc(Nc3ccc(C(=O)N4CCC(N(C)C)CC4)cc3OC(F)(F)F)nc1-2	–
530 nM	–	> 10000 nM	–	152 nM	–	> 10000 nM	CCc1cccc(CC)c1NC(=O)c1nn(C)c2c1CCc1cnc(Nc3ccccc3)nc1-2	–
